Here are results for eleven molecules from patent publication US10683293B2, “Optionally fused heterocyclyl-substituted derivatives of pyrimidine useful for the treatment of inflammatory, metabolic, oncologic and autoimmune diseases” (NUEVOLUTION A/S, priority 2014, dated 2020).

Broadly, the inhibition is the share of the control response that was lost under treatment. A word on the IC50: it is the concentration needed to halve the response being measured. Lower therefore signals inhibition by little substance.

In one experiment the test system is female C57BL/6 mice. The experiment in a line: Experimental Autoimmune Encephalomyelitis (EAE) Study. Particulars: 30 mg/kg, orally twice daily, from day of EAE induction, 25 days. The experiment is classed as in vivo, mouse.
Experiment [1] has as its target T1, ligand binding domain of human RORγ (Homo sapiens, UniProt P51449).
T1 construct: host or cells: HEK293t
T1 sequence (P51449 269-508 limits assumed): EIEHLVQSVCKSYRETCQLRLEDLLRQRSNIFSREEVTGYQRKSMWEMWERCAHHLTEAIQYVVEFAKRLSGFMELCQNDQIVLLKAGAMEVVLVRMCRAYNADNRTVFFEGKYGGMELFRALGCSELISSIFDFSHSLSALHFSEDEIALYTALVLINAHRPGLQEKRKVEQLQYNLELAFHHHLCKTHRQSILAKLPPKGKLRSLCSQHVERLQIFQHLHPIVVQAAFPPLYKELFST
Kind of experiment: RORγ Reporter Assay (Gal4). The experiment is classed as cell-based. Particulars: for inhibition at 1 µM: HEK-293T, 1 μM test compound, HEK293t RORγ reporter cells, 24 hour, read-out: Gal4 activity range @ 1 μM (% inhibition); for Gal4 activity range @ 0.1 μM (% inhibition): RORγ Reporter Assay (Gal4), HEK293t reporter cells, compound at 0.1 μM, values are activity range bounds. Summed up:
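HEK293t cells expressing Gal4 DBD–human RORγ LBD hybrid with Gal4-UAS firefly luciferase reporter; compounds at final 1,000 nM and 100 nM (0.1% DMSO), triplicate, medium with 10% charcoal-stripped FBS, 24 h at 37 °C. Luminescence read; percent reduction of RORγ activity calculated versus vehicle-only wells.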

The subject of a further experiment is male DBA/1J mice. The experiment in a line: Collagen-Induced Arthritis (CIA) Study. It counts as in vivo, mouse. Conditions: 30 mg/kg, orally twice daily, therapeutic setting (from day 27 until day 41). The source says:
Compounds disclosed herein have also been evaluated in two different mouse in vivo disease models: Experimental Autoimmune Encephalomyelitis (EAE) model (an animal model for multiple sclerosis), and Collagen-induced Arthritis (CIA) model (an animal model for rheumatoid arthritis).
Collagen-Induced Arthritis (CIA) Study
Collagen-induced arthritis is an animal model of rheumatoid arthritis used to evaluate the efficacy of test compounds. CIA was induced at Washington Biotechnology Inc. (Baltimore) in male DBA/1J mice (Jackson Laboratories) by subcutaneous injection at the base of the tail with 50 μl of a bovine collagen/complete Freund's adjuvant emulsion. After 21 days, the mice were further boosted by a further subcutaneous injection of 50 μl of a collagen/incomplete Freund's adjuvant emulsion. For treatment, compound or vehicle (2% DMSO, 10% HP-β-CD in MilliQ water) was given orally twice daily at various doses selected from 3, 10, 30 mg/kg, beginning at the day of CIA induction (Prophylactic setting), or after disease initiation (at day 27, therapeutic setting). Treatment lasted until day 41, and the animals were scored three times weekly. Each paw was scored and the sum of all four scores was recorded as the Arthritic Index (AI). […] The Arthritis Index for each treatment can be expressed as the mean score for each treatment group+/−S.E.M.

For experiment [2], the target named is T2, human RORγt (Ligand Binding Domain) (Homo sapiens, UniProt P51449).
T2 construct: purchased Crelux (Planegg, Germany) batch no PC5032-1
T2 sequence (P51449 269-508 limits assumed): T1 sequence (P51449 269-508 limits assumed)
The experiment in a line: Fluorescence Polarization (FP) Assay. Particulars: 100 nM human RORγt LBD, 25 nM TAMRA probe, values are activity range bounds. In short, it runs like this:
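Binding to the RORγt ligand-binding domain was followed by FP. Displacement of a TAMRA-tagged RORγt ligand tracer (910 g/mol) was measured, with DMSO-only wells as negative control.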
In general terms: In fluorescence polarisation assays a small probe gives low polarisation when free and higher when bound to something large.

Take `CS(=O)(=O)N1CCC(CNc2ncnc(N(Cc3ccc(C(F)(F)F)cc3)C3CC3)c2F)CC1` [Example A7, N4-cyclopropyl-5-fluoro-N6-[(1-methylsulfonyl-4-piperidyl)methyl]-N4-[[4-(trifluoromethyl)phenyl]methyl] pyrimidine-4,6-diamine]: in the experiment with female C57BL/6 mice, the EAE clinical score entry is “significantly lower the clinical score” and the “onset of EAE” value was “delay onset”. In experiment [1], the inhibition at 1 µM was > 80% and the “Gal4 activity range @ 0.1 μM (% inhibition)” value is >80 % inhibition. Besides, in the experiment on male DBA/1J mice, the “disease severity (CIA, Arthritic Index)” value is on record as “significantly reduce disease severity” and the “rate of disease development (CIA)” value was “decrease rate of disease development”. The 50% inhibitory concentration (IC50) in experiment [2] was < 500 nM.
For the molecule `NC(=O)Cc1ccc(CNc2ncnc(N(Cc3ccc(C(F)(F)F)cn3)C3CC3)c2F)cc1` [Example A85, 2-[4-[[[6-[cyclopropyl-[[5-(trifluoromethyl)-2-pyridyl]methyl]amino]-5-fluoro-pyrimidin-4-yl]amino]methyl]phenyl]acetamide], in experiment [1], the inhibition at 1 µM was > 80% and the “Gal4 activity range @ 0.1 μM (% inhibition)” value is reported as >50 % inhibition. Also, the IC50 in experiment [2] is < 500 nM.
For `CN(Cc1ccc(C(F)(F)F)cc1)c1ncnc(NCc2ccc(CC(N)=O)cc2)c1F` [Example A19, 2-[4-[[[5-fluoro-6-[methyl-[[4-(trifluoromethyl)phenyl]methyl]amino]pyrimidin-4-yl]amino]methyl]phenyl]acetamide] the same measures were > 80%, >20 % inhibition and < 500 nM.
Regarding `COc1ccc2cc(CN(C)c3ncnc(NCc4ccc(CC(N)=O)cc4)c3F)ccc2c1` [Example A120, 2-[4-[[[5-fluoro-6-[(6-methoxy-2-naphthyl)methyl-methyl-amino]pyrimidin-4-yl]amino]methyl]phenyl]acetamide], in experiment [1], the inhibition at 1 µM is > 80% and the “Gal4 activity range @ 0.1 μM (% inhibition)” value is >20 % inhibition. Moreover, the IC50 in experiment [2] was < 500 nM.
For `OCC1(Cn2ccc3c(N(Cc4ccc(C(F)(F)F)cc4)C4CC4)ncnc32)COC1` [Example A56, [3-[[4-[cyclopropyl-[[4-(trifluoromethyl)phenyl]methyl]amino]pyrrolo[2,3-d]pyrimidin-7-yl]methyl]oxetan-3-yl]methanol] the same measures were > 80%, >80 % inhibition and < 500 nM.
For `CN(Cc1ccc(OC(F)(F)F)cc1)c1ncnc(NCc2ccc(CC(N)=O)cc2)c1F` [Example A20, 2-[4-[[[5-fluoro-6-[methyl-[[4-(trifluoromethoxy)phenyl]methyl]amino]pyrimidin-4-yl]amino]methyl]phenyl]acetamide], in that order: > 50%, >20 % inhibition and < 2000 nM.
For `CS(=O)(=O)N1CCC2(CC1)CC2Nc1ncnc(N(Cc2ccc(C(F)(F)F)cc2)C2CC2)c1F` (stereo not shown) [Example A169, N6-cyclopropyl-5-fluoro-N4-(6-methylsulfonyl-6-azaspiro[2.5]octan-2-yl)-N6-[[4-(trifluoromethyl)phenyl]methyl] pyrimidine-4,6-diamine], in that order: > 80%, >80 % inhibition and < 500 nM.
For `NC(=O)Cc1ccc(CNc2ncnc(N(Cc3ccc(C(F)(F)F)nc3)C3CC3)c2F)cc1` [Example A83, 2-[4-[[[6-[cyclopropyl-[[6-(trifluoromethyl)-3-pyridyl]methyl]amino]-5-fluoro-pyrimidin-4-yl]amino]methyl]phenyl]acetamide], in experiment [1], the inhibition at 1 µM was > 80% and the “Gal4 activity range @ 0.1 μM (% inhibition)” value is on record as >50 % inhibition. For the same molecule, the 50% inhibitory concentration (IC50) in experiment [2] is < 500 nM.
For `Cc1cccc(Cl)c1CN(c1ncnc(NCc2ccc(CC(N)=O)cc2)c1F)C1CC1` [Example A67, 2-[4-[[[6-[(2-chloro-6-methyl-phenyl)methyl-cyclopropyl-amino]-5-fluoro-pyrimidin-4-yl]amino]methyl]phenyl]acetamide], in that order: > 50%, >20 % inhibition and < 500 nM.
For the molecule `CN(c1ncnc(NCc2ccc(CC(N)=O)cc2)c1F)C1(c2ccc(C(F)(F)F)cc2)CC1` [Example A81, 2-[4-[[[5-fluoro-6-[methyl-[1-[4-(trifluoromethyl)phenyl]cyclopropyl]amino]pyrimidin-4-yl]amino]methyl]phenyl]acetamide], in experiment [1], the inhibition at 1 µM is > 80% and the “Gal4 activity range @ 0.1 μM (% inhibition)” value was >50 % inhibition. The IC50 in experiment [2] is < 500 nM.
As for `NC(=O)Cc1ccc(CNc2cc(N(Cc3ccc(C(F)(F)F)cc3)C3CC3)ncn2)cc1` [Example A107, 2-[4-[[[6-[cyclopropyl-[[4-(trifluoromethyl)phenyl]methyl]amino]pyrimidin-4-yl]amino]methyl]phenyl]acetamide], in experiment [1], the inhibition at 1 µM is > 50% and the “Gal4 activity range @ 0.1 μM (% inhibition)” value is reported as >0 % inhibition. Further, the IC50 in experiment [2] is < 1000 nM.
